Measurements reported in ChEMBL document CHEMBL1212727, “Design, synthesis and selection of DNA-encoded small-molecule libraries” (Nat Chem Biol, 2009).

Biological target: T1, Aurora kinase A (Homo sapiens, UniProt O14965)
T1 sequence (O14965 whole entry): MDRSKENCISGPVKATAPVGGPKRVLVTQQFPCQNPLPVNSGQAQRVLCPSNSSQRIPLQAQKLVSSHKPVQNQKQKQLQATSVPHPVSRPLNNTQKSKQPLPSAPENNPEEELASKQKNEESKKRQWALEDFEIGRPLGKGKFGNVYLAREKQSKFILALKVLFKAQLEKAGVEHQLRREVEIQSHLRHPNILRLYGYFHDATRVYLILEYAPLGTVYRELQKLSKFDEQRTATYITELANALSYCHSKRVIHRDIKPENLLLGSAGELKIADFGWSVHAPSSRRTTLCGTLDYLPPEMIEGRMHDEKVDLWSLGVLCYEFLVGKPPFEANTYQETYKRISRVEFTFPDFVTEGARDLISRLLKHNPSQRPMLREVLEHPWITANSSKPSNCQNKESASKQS
Assay: Inhibition of Aurora A ATP-binding site

Ki [nM]	SMILES
20	Cc1cc(Nc2cc(N3CCN(CC(=O)O)CC3)nc(Sc3ccc(NC(=O)C4CC4)cc3)n2)n[nH]1

Biological target: T2, Mitogen-activated protein kinase 14 (Homo sapiens, UniProt Q16539)
Assay: Displacement of […] form p38alpha after 30 mins by luminescence assay

T2 sequence (Q16539 whole entry): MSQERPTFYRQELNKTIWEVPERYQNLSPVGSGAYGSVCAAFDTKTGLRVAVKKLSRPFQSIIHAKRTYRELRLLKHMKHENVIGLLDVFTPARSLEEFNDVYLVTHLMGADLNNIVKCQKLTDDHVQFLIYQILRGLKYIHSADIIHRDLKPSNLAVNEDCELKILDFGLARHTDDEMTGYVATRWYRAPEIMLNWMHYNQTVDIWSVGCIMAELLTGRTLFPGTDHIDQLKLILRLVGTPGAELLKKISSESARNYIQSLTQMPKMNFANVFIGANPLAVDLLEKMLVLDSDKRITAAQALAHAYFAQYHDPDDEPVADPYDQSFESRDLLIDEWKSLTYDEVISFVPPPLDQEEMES

EC50 [nM]	SMILES
2700	CCOc1nc(N[C@@H](Cc2ccc3c(c2)COC(C)(C)O3)C(=O)NC)nc(-n2cnc3cc(C(=O)N4CCCc5ccccc54)ccc32)n1
≤ 8	CCOc1nc(N[C@@H](Cc2ccc3c(c2)COC(C)(C)O3)C(=O)NC)nc(-n2cnc3ccc(C(=O)N4CCCc5ccccc54)cc32)n1
5200	CNC(=O)[C@H](Cc1ccc2c(c1)COC(C)(C)O2)Nc1nc(O)nc(-n2cnc3cc(C(=O)N4CCCc5ccccc54)ccc32)n1
≤ 7	CNC(=O)[C@H](Cc1ccc2c(c1)COC(C)(C)O2)Nc1nc(-n2cnc3ccc(C(=O)N4CCCc5ccccc54)cc32)nc(=O)[nH]1

Biological target: T1, Aurora kinase A
Assay: Inhibition of Aurora A ATP-binding site assessed as inhibition of [gamma-33P]ATP incorporation into substrate by scintillation counting

IC50 [nM]	SMILES
3.8	CCCCN(C)c1nc(NCCc2ccccc2OC)nc(NC(Cc2c[nH]c3ncccc23)C(N)=O)n1 (stereo not drawn)
1.2	CCCCN(C)c1nc(NCCc2ccccc2OC)nc(NCCc2c[nH]c3ncccc23)n1
6.3	COc1ccccc1CCNc1nc(NC(Cc2c[nH]c3ncccc23)C(N)=O)nc(N(C)[C@@H](C)c2ccccc2)n1 (stereo partly drawn)
3.7	COc1ccccc1CCNc1nc(Nc2ccc3ncccc3c2)nc(NC(Cc2c[nH]c3ncccc23)C(N)=O)n1 (stereo not drawn)
5.1	CNc1nc(NCCc2ccccc2OC)nc(Nc2ccc3ncccc3c2)n1

Biological target: T2, Mitogen-activated protein kinase 14
Assay: Inhibition of p38alpha assessed as inhibition of [gamma-33P]ATP incorporation into substrate after 4 hrs by radiometric assay

IC50 [nM]	SMILES
≤ 2	CONC(=O)c1ccc(C)c(Nc2nc(NCC3CCCC(CN)C3)nc(NC(C)C(C)(C)C)n2)c1 (stereo not drawn)
≤ 2	CONC(=O)c1ccc(C)c(Nc2nc(NCC3CCCC(CN)C3)nc(NC3CCCCC3)n2)c1 (stereo not drawn)
15	CONC(=O)c1ccc(C)c(Nc2nc(NCc3cccc(C)c3)nc(NC(C)C(C)(C)C)n2)c1 (stereo not drawn)
